Assay results from US12251383B2, “Methods and compositions for KRAS inhibitors” (The Board of Regents of the University of Texas System, priority 2019, dated 2025).
Entries after “also recorded” stand apart in the source; their conditions may differ.

Legend:
KRAS-Raf^RBD interaction = KRAS-Raf^RBD interaction (Homo sapiens, UniProt P01116); assay: Fluorescence polarization of BGTP-γ-S KRAS with GST-Raf RBD; assay type: binding
Method: FIGS. 2A-2C show representative data pertaining to the disruption of KRAS-Raf interaction by disclosed compound 11. (FIG. 2A) Fluorescence polarization of ^BGTP-γ-SKRAS (0.5 μM) as a function of a varying concentration of GST-Raf^RBD in the absence (red) and presence (blue) of 1 μM compound 11. Shown above the curves is the KD for KRAS-Raf^RBD binding obtained by fitting the data to
[formula] where P1 is polarization of free KRAS, P2 is polarization of Raf-bound KRAS, c is the total concentration of KRAS, and x the total concentration of Raf^RBD. (FIG. 2B) Amount of GFP-KRAS^G12D pulled down by GST-Raf^RBD after treatment of cell lysates with compound at the concentrations indicated (representative Westerns are shown at the top). The RBD sequence length was 1-149 and 51-131 in the fluorescence polarization and pull-down assays, respectively. (FIG. 2C) GFP fluorescence lifetime from FLIM-FRET using cells expressing GFP-KRAS^G12D alone or with RFP-Raf, with or without treatment by 1 μM compound 11. Data are shown as mean±S.E; significance estimated by one-way analysis of variance.
Fluorescence polarization. Fluorescence polarization assay was conducted following previous reports (48, 49). KRAS was pre-loaded with the non-hydrolyzable fluorescent GTP analog BODIPY-GTP-γ-S (BGTP-γ-S; Life Technologies) using buffer-exchange in NAP-5 (GE Life Sciences) as described in the previous section. Then 0.5 μM (50 μL) of ^BGTP-γ-SKRAS was incubated with an equal volume but varying concentrations (0 to 2.5 μM) of GST-Raf^RBD (Raf RBD residues 1-149; Life Technologies) for 30 min in the dark. To determine the effect of ligand on RAS-Raf binding, KRAS was first incubated with a fixed concentration of the ligand for 30 min and then with GST-Raf^RBD. Fluorescence polarization was measured using PolarStar Optima plate reader (excitation: 485 nm, emission: 520 nm) at room temperature. GST-tag was used to increase the weight of Raf^RBD for a greater polarization. The dissociation constant for KRAS-Raf binding was determined using a quadratic ligand binding equation (48).

KRAS = KRAS (Homo sapiens, UniProt P01116); assay: Nucleotide release assay (intrinsic and SOS-mediated); assay type: biochemical
Method: (FIG. 6A) Chemical structure of compound 13, an analogue of 11 without a benzene on the pyrimidine core. (FIG. 6B) Predicted binding pose of compound 13. […] See legend of FIGS. 2A-2C for additional details. […] (FIG. 6D) Fluorescence polarization of ^BGTP-γ-SKRAS (0.5 μM) with increasing concentration of GST-Raf^RBD in the absence (red) and presence (green) of 20 μM compound 13. (FIG. 6E) Level of GFP-KRAS^G12D pulled down by GST-Raf^RBD after treatment of whole cell lysates with 10 μM of compound 13 (representative Western blots are shown at the top). The RBD sequence length was 1-149 in the fluorescence polarization assay (FIG. 6D) and 51-131 in the pull-down assay (FIG. 6E). (FIG. 6F) Intrinsic (red) and SOS-mediated (blue) nucleotide release rates were determined. Briefly, fluorescence intensity data obtained in a mixture of 0.5 μM KRAS (and SOS), 100 μM GTP and 0 or 50 μM of compound 13 (top), derived from the changes in during the reaction KRAS^BGDP+GTP→KRAS^GTP+BGDP (bottom). Rates were calculated using single exponential fits starting from 120 s, and are show in the inset to the right of the graph.
Nucleotide exchange and release assays. Loading of fluorescent-labeled GDP (BODIPY-GDP; BGDP from hereon) to KRAS was conducted following previous reports (23, 47), with minor modifications. Purified KRAS was buffer-exchanged in NAP-5 column (GE Life Sciences) in low Mg^2+ buffer (25 mM Tris pH 7.5, 50 mM NaCl, and 0.5 mM MgCl2). The eluate was incubated with 10-fold molar excess of BGDP (Life Technologies) in the presence of 5 mM EDTA and 1 mM DTT for 1.5 h at 20° C. in the dark. […] The concentration of ^BGDPKRAS was determined using Bradford assay and a BGDP standard curve. Then the effect of ligands on the intrinsic rate of nucleotide release was monitored using the decrease in fluorescence with time as BGDP dissociates from KRAS in a 100 μL reaction mixture (96-well plate) of 0.5 μM B^GDPKRAS, 100 μM GTP and varying concentrations of ligand (0 to 25 μM); GTP was added just before measurements. To measure the rate of SOS-mediated nucleotide release, 0.5 μM SOS (residues 564-1049, Cytoskeleton Inc) was added after adding GTP, and fluorescence was immediately read (excitation: 485 nm, emission: 510 nm) using Tecan Infinite M200 plate reader. Intrinsic and SOS-mediated nucleotide exchange rates were monitored with the fluorescence intensity increase of BGTP as it displaces GDP from KRAS. […] Experiments were conducted with minimal light and the reaction was monitored for 2 h at room temperature. Fluorescence intensities were normalized at 120 s and the traces were fit with linear or single exponential functions (Igor Pro, Wavemetrics).
The effect of compound 11 on intrinsic and GEF-dependent nucleotide release and exchange reactions was determined. […]

KRAS-Raf^RBD interaction, sequence (P01116 1-166 isoform P01116-2 limits assumed): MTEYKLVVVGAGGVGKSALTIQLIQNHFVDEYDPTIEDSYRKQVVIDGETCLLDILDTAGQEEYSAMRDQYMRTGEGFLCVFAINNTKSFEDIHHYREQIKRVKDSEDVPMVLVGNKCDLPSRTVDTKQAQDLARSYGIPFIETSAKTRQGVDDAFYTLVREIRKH
KRAS, sequence (P01116 1-188 isoform P01116-2): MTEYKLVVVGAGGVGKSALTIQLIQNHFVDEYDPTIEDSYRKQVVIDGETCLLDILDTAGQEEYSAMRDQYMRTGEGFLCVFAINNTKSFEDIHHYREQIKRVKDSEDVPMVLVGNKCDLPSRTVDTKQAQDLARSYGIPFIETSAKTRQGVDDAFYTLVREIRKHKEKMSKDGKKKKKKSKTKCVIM

Row | Structure (SMILES) | reduction of polarization (RAS-Raf interaction) (KRAS-Raf^RBD interaction; 1 μM compound, at 2 μM GST-Raf^RBD) [%] | reduction of affinity of KRAS to Raf^RBD (KRAS-Raf^RBD interaction; 1 μM compound, from KD of polarization curves) [fold] | effect on SOS-mediated nucleotide release rate (KRAS) | effect on intrinsic nucleotide release rate (KRAS) | effect on interaction of KRAS with GST-Raf^RBD (KRAS-Raf^RBD interaction; 20 μM compound) | effect on SOS-mediated nucleotide release rate (KRAS; 50 μM compound) | effect on intrinsic nucleotide release rate (KRAS; 50 μM compound)
1 | Cc1nn2c(N3CCN(CCO)CC3)cc(-c3ccccc3)nc2c1-c1ccccc1 [Compound 11, 2-[4-(8-methyl-3,9-diphenyl-2,6,7-triazabicyclo[4.3.0]nona-2,4,7,9-tetraen-5-yl)piperazin-1-yl]ethanol] | > 80 | ~13 | slightly reduced; also recorded: only modestly decreased | no effect |  |  | 
2 | Cc1cc(N2CCN(CCO)CC2)n2nc(C)c(-c3ccccc3)c2n1 [Compound 13] |  |  |  |  | as effectively as the parent compound | dramatically increased | dramatically increased
